Values of other authors in PMC9889658, “The structure of MadC from Clostridium maddingley reveals new insights into class I lanthipeptide cyclases” (Frontiers in Microbiology, 2023).

Target: NisB
Settings: dependent on maturation state; ref Mavaro et al., 2011; read-out: binding affinity
From the text: This implies a higher relevance of the LP comp ...

MSTKDFNLDLVSVSKKDSGASPRITSISLCTPGCKTGALMGCNMKTATCHCSIHVSK [unmodified prenisin, unmodified nisin precursor peptide]
Kd: 1000 nM
